Tests used:
[1] = biological target: ALK (Homo sapiens (Human), UniProt Q9UM73); experiment: KINOMEscan kinase binding assay (DiscoveRx)
Protocol: (§1) For most assays, kinase-tagged T7 phage strains were prepared in an E. coli host derived from the BL21 strain. E. coli were grown to log-phase and infected with T7 phage and incubated with shaking at 32° C. until lysis. The lysates were centrifuged and filtered to remove cell debris. The remaining kinases were produced in HEK-293 cells and subsequently tagged with DNA for qPCR detection. […] The liganded beads were blocked with excess biotin and washed with blocking buffer (SeaBlock (Pierce), 1% BSA, 0.05% Tween 20, 1 mM DTT) to remove unbound ligand and to reduce nonspecific binding. […] All reactions were performed in polystyrene 96-well plates in a final volume of 0.135 mL. […] The kinase concentration in the eluates was measured by qPCR.

[2] = biological target: ROS1 (Homo sapiens (Human), UniProt P08922); experiment: KINOMEscan kinase binding assay (DiscoveRx)
Protocol: (§2) Kinase binding assays were performed at DiscoveRx using the general KINOMEscan Kd Protocol (Fabian, M. A. et al., “A small molecule-kinase interaction map for clinical kinase inhibitors,” Nat. Biotechnol. 2005, 23(3):329-36). For most assays, kinase-tagged T7 phage strains were prepared in an E. coli host derived from the BL21 strain. E. coli were grown to log-phase and infected with T7 phage and incubated with shaking at 32° C. until lysis. The lysates were centrifuged and filtered to remove cell debris. The remaining kinases were produced in HEK-293 cells and subsequently tagged with DNA for qPCR detection. Streptavidin-coated magnetic beads were treated with biotinylated small molecule ligands for 30 minutes at room temperature to generate affinity resins for kinase assays. The liganded beads were blocked with excess biotin and washed with blocking buffer (SeaBlock (Pierce), 1% BSA, 0.05% Tween 20, 1 mM DTT) to remove unbound ligand and to reduce nonspecific binding. […] All reactions were performed in polystyrene 96-well plates in a final volume of 0.135 mL. […] The beads were then re-suspended in elution buffer (1×PBS, 0.05% Tween 20, 0.5 μM non-biotinylated affinity ligand) and incubated at room temperature with shaking for 30 minutes. The kinase concentration in the eluates was measured by qPCR.

[3] = biological target: TRKA (Homo sapiens (Human), UniProt P04629); experiment: KINOMEscan kinase binding assay (DiscoveRx)
Protocol: as §2

[4] = test system: Colorectal cell line KM12 (harboring endogenous TPM3-TRKA fusion gene); experiment: KM12 cell proliferation assay (CellTiter-Glo); assay type: cell-based; settings: Homo sapiens, 72 hours incubation, read-out: KM 12 cell prolif. IC50
Protocol: (§3) Colorectal cell lines KM 12 (harboring endogenous TPM3-TRKA fusion gene) cells were cultured in DMEM medium, supplemented with 10% fetal bovine serum and 100 U/mL of penicillin/streptomycin. 5000 cells were seeded in 384 well white plate for 24 hours before compounds treatment. Cell proliferation was measured using CellTiter-Glo luciferase-based ATP detection assay (Promega) following the manufactures's protocol after 72 hours incubation. IC50 determinations were performed using GraphPad Prism software (GraphPad, Inc., San Diego, Calif.).
as §3, with “Alternatively: Colorectal” for “Colorectal”, “line KM12” for “lines KM 12”, “penicillin/streptomycin. […]” for “penicillin/streptomycin.”

[5] = test system: Essential thrombocythemia cell line SET-2 cells (harboring endogenous JAK2 point mutation); experiment: SET-2 cell proliferation assay (CellTiter-Glo); assay type: cell-based; settings: Homo sapiens, 72 hours incubation, read-out: SET2 cell proli. IC50
[6] = test system: T cell lymphoma Karpas-299 cell line (harboring endogenous NPM-ALK fusion gene); experiment: Karpas-299 cell proliferation assay (CellTiter-Glo); assay type: cell-based; settings: Homo sapiens, 72 hours incubation, read-out: Karpas 299 cell proli. IC50
[7] = biological target: JAK2 (Homo sapiens (Human), UniProt O60674); experiment: KINOMEscan kinase binding assay (DiscoveRx)
Protocol: as §1

Sequence of ROS1 (P08922 28-2347): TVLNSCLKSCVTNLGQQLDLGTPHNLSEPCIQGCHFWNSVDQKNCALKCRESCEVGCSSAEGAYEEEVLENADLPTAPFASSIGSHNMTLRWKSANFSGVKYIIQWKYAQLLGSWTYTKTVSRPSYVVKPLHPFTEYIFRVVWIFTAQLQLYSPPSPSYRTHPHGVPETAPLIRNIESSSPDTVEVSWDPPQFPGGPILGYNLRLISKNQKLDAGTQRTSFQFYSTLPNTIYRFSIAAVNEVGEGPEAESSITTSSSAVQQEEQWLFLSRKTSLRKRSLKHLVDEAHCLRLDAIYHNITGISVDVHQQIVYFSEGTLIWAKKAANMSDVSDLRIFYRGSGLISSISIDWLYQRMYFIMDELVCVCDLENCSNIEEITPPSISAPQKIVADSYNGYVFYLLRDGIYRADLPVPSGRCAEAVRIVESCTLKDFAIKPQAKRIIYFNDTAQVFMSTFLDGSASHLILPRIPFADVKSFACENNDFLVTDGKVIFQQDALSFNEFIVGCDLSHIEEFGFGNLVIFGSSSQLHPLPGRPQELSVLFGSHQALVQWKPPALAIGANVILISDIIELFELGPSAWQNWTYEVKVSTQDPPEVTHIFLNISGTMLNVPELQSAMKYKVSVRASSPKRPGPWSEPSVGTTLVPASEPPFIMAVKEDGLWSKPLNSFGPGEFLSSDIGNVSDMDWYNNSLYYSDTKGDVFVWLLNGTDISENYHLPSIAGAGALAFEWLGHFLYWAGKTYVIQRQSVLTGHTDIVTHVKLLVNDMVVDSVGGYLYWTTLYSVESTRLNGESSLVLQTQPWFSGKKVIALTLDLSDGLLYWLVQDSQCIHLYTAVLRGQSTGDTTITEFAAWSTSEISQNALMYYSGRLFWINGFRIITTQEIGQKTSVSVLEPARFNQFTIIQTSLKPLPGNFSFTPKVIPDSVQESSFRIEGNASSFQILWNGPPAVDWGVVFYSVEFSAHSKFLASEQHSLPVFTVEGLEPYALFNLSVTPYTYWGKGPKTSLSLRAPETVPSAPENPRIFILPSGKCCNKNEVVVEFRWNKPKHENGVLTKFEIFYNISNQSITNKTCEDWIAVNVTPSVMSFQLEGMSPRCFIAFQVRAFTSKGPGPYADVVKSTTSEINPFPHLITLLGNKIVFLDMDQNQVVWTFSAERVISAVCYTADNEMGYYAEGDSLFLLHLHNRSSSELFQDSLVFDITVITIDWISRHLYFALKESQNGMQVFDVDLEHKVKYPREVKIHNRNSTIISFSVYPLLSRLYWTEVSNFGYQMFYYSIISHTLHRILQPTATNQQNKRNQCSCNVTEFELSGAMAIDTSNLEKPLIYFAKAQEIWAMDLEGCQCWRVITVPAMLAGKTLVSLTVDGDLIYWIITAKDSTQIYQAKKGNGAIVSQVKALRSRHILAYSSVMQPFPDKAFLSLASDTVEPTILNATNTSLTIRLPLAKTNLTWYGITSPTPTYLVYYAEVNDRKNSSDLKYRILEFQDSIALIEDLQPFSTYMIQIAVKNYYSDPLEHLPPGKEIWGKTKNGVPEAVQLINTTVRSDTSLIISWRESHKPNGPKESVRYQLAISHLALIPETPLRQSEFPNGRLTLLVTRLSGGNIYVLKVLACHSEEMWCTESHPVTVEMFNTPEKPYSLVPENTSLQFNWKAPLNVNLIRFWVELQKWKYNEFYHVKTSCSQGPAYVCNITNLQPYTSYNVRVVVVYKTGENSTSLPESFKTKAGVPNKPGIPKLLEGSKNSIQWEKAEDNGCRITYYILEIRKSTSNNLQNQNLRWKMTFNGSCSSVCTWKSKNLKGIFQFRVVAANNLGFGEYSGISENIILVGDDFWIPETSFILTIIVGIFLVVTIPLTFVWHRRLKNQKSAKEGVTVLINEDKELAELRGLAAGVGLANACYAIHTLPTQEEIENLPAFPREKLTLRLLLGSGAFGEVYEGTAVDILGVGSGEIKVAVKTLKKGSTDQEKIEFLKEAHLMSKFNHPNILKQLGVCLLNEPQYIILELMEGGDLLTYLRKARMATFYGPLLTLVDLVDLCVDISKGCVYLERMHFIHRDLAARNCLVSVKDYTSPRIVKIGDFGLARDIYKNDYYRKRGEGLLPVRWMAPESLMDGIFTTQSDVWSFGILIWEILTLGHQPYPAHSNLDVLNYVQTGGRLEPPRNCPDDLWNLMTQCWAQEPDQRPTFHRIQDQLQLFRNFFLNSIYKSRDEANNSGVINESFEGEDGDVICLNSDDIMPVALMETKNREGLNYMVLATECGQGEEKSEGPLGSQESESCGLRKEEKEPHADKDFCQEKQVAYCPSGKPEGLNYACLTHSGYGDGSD
Sequence of ALK (Q9UM73 19-1620): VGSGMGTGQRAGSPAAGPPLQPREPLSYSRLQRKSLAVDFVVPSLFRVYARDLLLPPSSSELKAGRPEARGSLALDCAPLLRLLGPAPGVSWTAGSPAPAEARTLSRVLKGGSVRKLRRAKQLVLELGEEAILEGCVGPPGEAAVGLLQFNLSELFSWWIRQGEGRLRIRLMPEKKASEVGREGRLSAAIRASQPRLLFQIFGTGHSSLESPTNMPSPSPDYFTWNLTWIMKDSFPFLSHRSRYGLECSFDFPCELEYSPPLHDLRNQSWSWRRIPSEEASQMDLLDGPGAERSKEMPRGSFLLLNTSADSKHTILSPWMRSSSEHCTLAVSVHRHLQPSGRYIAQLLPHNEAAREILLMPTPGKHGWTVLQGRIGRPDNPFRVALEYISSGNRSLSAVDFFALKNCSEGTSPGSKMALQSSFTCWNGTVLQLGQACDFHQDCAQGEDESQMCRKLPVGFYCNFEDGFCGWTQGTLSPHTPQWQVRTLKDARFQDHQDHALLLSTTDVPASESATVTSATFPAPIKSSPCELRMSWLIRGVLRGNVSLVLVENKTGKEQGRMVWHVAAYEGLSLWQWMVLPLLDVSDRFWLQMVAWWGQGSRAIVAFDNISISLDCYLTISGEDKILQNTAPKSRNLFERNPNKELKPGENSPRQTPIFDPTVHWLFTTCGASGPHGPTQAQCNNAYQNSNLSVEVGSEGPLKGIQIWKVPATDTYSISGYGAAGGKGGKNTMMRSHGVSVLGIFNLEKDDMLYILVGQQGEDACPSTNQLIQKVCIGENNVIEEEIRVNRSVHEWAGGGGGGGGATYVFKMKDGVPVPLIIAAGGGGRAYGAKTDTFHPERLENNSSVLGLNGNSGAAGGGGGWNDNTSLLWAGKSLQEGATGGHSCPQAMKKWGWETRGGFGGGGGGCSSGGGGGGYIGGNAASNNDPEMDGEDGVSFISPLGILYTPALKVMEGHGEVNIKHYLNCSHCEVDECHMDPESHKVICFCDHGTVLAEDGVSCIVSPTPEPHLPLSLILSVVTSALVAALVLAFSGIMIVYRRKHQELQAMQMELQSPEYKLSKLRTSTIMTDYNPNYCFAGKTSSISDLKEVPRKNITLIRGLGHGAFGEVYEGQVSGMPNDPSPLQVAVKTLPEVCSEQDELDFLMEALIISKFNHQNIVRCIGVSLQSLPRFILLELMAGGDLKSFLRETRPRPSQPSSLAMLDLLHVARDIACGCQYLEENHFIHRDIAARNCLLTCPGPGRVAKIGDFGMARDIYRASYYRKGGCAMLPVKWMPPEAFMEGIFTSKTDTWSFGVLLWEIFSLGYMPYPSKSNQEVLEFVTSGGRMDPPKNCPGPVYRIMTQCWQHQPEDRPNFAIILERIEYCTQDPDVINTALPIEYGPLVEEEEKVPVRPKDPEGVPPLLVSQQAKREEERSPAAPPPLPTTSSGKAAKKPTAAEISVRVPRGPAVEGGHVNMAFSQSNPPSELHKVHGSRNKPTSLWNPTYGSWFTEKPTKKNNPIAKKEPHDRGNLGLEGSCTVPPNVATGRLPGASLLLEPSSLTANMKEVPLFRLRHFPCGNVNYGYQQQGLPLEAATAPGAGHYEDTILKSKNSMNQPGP
Sequence of TRKA (P04629 33-796): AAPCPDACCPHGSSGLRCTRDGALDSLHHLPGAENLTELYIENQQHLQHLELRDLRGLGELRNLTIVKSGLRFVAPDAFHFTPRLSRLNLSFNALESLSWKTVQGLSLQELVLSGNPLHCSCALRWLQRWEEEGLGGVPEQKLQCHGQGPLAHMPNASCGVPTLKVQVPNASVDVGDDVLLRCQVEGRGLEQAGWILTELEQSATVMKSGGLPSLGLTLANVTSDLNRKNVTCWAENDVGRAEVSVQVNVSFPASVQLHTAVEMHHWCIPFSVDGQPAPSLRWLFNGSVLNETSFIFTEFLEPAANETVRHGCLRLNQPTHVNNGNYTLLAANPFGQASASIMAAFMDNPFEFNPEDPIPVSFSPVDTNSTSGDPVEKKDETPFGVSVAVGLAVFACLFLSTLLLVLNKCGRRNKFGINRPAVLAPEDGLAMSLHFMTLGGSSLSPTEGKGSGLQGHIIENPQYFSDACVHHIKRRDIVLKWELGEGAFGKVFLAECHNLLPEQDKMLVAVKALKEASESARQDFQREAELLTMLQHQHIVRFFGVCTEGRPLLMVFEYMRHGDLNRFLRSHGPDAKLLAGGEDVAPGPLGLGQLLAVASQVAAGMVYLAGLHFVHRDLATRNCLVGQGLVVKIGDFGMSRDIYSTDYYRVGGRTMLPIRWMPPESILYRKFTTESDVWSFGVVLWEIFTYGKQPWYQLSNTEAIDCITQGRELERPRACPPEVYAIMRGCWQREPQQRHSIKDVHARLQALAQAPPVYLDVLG

Row | SMILES | Kd [1] | Kd [2] | Kd [3] | IC50 [4] | IC50 [5] | IC50 [6] | Kd [7]
1 | CC1Oc2ccn3ncc(c3n2)C(=O)NCCOc2ccc(F)c(Cl)c21 (stereo not drawn) [Example 11-1, 12-chloro-11-fluoro-13-methyl-6,7-dihydro-13H-1,15-ethenopyrazolo[4,3-f][1,10,4,8] benzodioxadiazacyclotridecin-4(5H)-one] | > 30000 nM | 1900 nM | 1900 nM | > 10000 nM | > 10000 nM | > 10000 nM | 
2 | CN1Cc2c(ccc(F)c2Cl)OCCNC(=O)c2cnn3ccc1nc23 [Example 39, 12-chloro-11-fluoro-14-methyl-6,7,13,14-tetrahydro-1,15-ethenopyrazolo[4,3-f][1,4,8,10]benzoxatriazacyclotridecin-4(5H)-one] | 180 nM | 4.7 nM | 0.23 nM | 3.8 nM | 8800 nM | 3800 nM | 27 nM
3 | Cc1nn2ccc3nc2c1C(=O)NCCOc1ccc(F)cc1CN3C [Example 40, 11-fluoro-3,14-dimethyl-6,7,13,14-tetrahydro-1,15-ethenopyrazolo[4,3-f][1,4,8,10]benzoxatriazacyclotridecin-4(5H)-one] | 600 nM | 410 nM |  | 204 nM | > 10000 nM | > 10000 nM | 
4 | CN1Cc2cc(F)ccc2OCCNC(=O)c2cnc3ccc1nn23 [Example 42, 10-fluoro-7-methyl-7,8,15,16-tetrahydro-3,6-ethenoimidazo[5,1-f][1,4,7,8,10]benzoxatetraazacyclotridecin-17(14H)-one] |  |  | 0.088 nM | 4 nM | 2000 nM | 3400 nM | 
5 | CCN1Cc2cc(F)ccc2OCCNC(=O)c2cnn3ccc1nc23 [Example 43, 14-ethyl-11-fluoro-6,7,13,14-tetrahydro-1,15-ethenopyrazolo[4,3-f][1,4,8,10]benzoxatriazacyclotridecin-4(5H)-one] |  |  | 0.086 nM | 2.6 nM | 1700 nM | 2800 nM | 3.7 nM
6 | CC(C)N1Cc2cc(F)ccc2OCCNC(=O)c2cnn3ccc1nc23 [Example 45, 11-fluoro-14-(propan-2-yl)-6,7,13,14-tetrahydro-1,15-ethenopyrazolo[4,3-f][1,4,8,10]benzoxatriazacyclotridecin-4(5H)-one] |  |  | 0.082 nM | 0.35 nM | 8000 nM | > 10000 nM | 7.8 nM
7 | CN1Cc2ccccc2OCCNC(=O)c2cnn3ccc1nc23 [Example 49, 14-methyl-6,7,13,14-tetrahydro-1,15-ethenopyrazolo[4,3-f][1,4,8,10]benzoxatriazacyclotridecin-4(5H)-one] |  |  | 0.14 nM | 6.7 nM | 7000 nM | 3900 nM | 24 nM
8 | O=C1NCCOc2ccc(F)cc2CNc2ccn3ncc1c3n2 [Example 50, 11-fluoro-6,7,13,14-tetrahydro-1,15-ethenopyrazolo[4,3-f][1,4,8,10]benzoxatriazacyclotridecin-4(5H)-one] |  |  | 0.2 nM | 74 nM | 6000 nM | 4100 nM | 0.57 nM
9 | CC1Nc2ccn3ncc(c3n2)C(=O)NCCOc2ccc(F)c(Cl)c21 (stereo not drawn) [Example 52, 12-chloro-11-fluoro-13-methyl-6,7,13,14-tetrahydro-1,15-ethenopyrazolo[4,3-f][1,4,8,10]benzoxatriazacyclotridecin-4(5H)-one] | 270 nM | 62 nM | 6.5 nM | 52 nM | 3600 nM | 7800 nM | 
10 | CN1Cc2cc(F)ccc2OCCCNC(=O)c2cnn3ccc1nc23 [Example 75, 12-fluoro-15-methyl-5,6,7,8,14,15-hexahydro-4H-1,16-ethenopyrazolo[4,3-g][1,5,9,11]benzoxatriazacyclotetradecin-4-one] |  |  | 0.015 nM | 0.6 nM | 4440 nM | 3900 nM | 6.5 nM
11 | O=C1NCCOc2ccc(F)cc2C(CO)Nc2ccn3ncc1c3n2 (stereo not drawn) [Example 98, 11-fluoro-13-(hydroxymethyl)-6,7,13,14-tetrahydro-1,15-ethenopyrazolo[4,3-f][1,4,8,10]benzoxatriazacyclotridecin-4(5H)-one] | 14 nM |  |  | 7.4 nM | 808 nM | 281 nM | 0.74 nM
12 | O=C1NCCCOc2ccc(F)cc2CCc2ccn3ncc1c3n2 [Example 103, 12-fluoro-5,6,7,8,14,15-hexahydro-4H-1,16-ethenopyrazolo[4,3-g][1,5,9]benzoxadiazacyclotetradecin-4-one] | 28 nM |  |  | 15 nM | > 10000 nM | 1960 nM | 1.9 nM
13 | CN1Cc2cc(F)ccc2SCCNC(=O)c2cnn3ccc1nc23 [Example 104, 11-fluoro-14-methyl-6,7,13,14-tetrahydro-1,15-ethenopyrazolo[4,3-f][1,4,8,10]benzothiatriazacyclotridecin-4(5H)-one] |  |  |  | 0.3 nM | 2350 nM | 5750 nM | 
14 | CN1CCC(N2Cc3cc(F)ccc3OCCNC(=O)c3cnn4ccc2nc34)C1 (stereo not drawn) [Example 105, 11-fluoro-14-(1-methylpyrrolidin-3-yl)-6,7,13,14-tetrahydro-1,15-ethenopyrazolo[4,3-f][1,4,8,10]benzoxatriazacyclotridecin-4(5H)-one] |  |  |  | 500 nM | > 10000 nM | > 5000 nM | 
15 | CN1Cc2cc(F)ccc2[S+]([O-])CCNC(=O)c2cnn3ccc1nc23 (stereo not drawn) [Example 106, 11-fluoro-14-methyl-6,7,13,14-tetrahydro-1,15-ethenopyrazolo[4,3-f][1,4,8,10]benzothiatriazacyclotridecin-4(5H)-one 8-oxide] |  |  |  | 176 nM | > 10000 nM | > 10000 nM | 
16 | CN1Cc2cc(F)ccc2S(=O)(=O)CCNC(=O)c2cnn3ccc1nc23 [Example 107, 11-fluoro-14-methyl-6,7,13,14-tetrahydro-1,15-ethenopyrazolo[4,3-f][1,4,8,10]benzothiatriazacyclotridecin-4(5H)-one 8,8-dioxide] |  |  |  | 75.6 nM | 3000 nM | > 10000 nM | 
17 | C[C@H]1CNC(=O)c2cnn3ccc(nc23)CCc2cc(F)ccc2O1 [Example 108, (7S)-11-fluoro-7-methyl-6,7,13,14-tetrahydro-1,15-ethenopyrazolo[4,3-f][1,4,8]benzoxadiazacyclotridecin-4(5H)-one] |  |  |  | 3.6 nM | 870 nM | 619 nM | 
18 | C[C@H]1COc2ccc(F)cc2[C@@H](C)Nc2ccn3ncc(c3n2)C(=O)N1 [Example 109, (6S,13R)-11-fluoro-6,13-dimethyl-6,7,13,14-tetrahydro-1,15-ethenopyrazolo[4,3-f][1,4,8,10]benzoxatriazacyclotridecin-4(5H)-one] |  |  |  | 0.86 nM | 398 nM | 225 nM | 
19 | C[C@@H]1COc2ccc(F)cc2[C@@H](C)Nc2ccn3ncc(c3n2)C(=O)N1 [Example 110, (6R,13R)-11-fluoro-6,13-dimethyl-6,7,13,14-tetrahydro-1,15-ethenopyrazolo[4,3-f][1,4,8,10]benzoxatriazacyclotridecin-4(5H)-one] |  |  |  | 0.7 nM | 219 nM | 163 nM | 
20 | C[C@H]1CNC(=O)c2cnn3ccc(nc23)N[C@H](CO)c2cc(F)ccc2O1 [Example 111, (7S,13S)-11-fluoro-13-(hydroxymethyl)-7-methyl-6,7,13,14-tetrahydro-1,15-ethenopyrazolo[4,3-f][1,4,8,10]benzoxatriazacyclotridecin-4(5H)-one] |  |  |  | 76 nM | 2000 nM | 329 nM | 

— patent US10246466B2, “Diaryl macrocycles as modulators of protein kinases” (TP THERAPEUTICS, INC., priority 2014, dated 2019)
